In PMC11414412, “Design and synthesis new indole-based aromatase/iNOS inhibitors with apoptotic antiproliferative activity” (Frontiers in Chemistry, 2024):

Tests used:
Bax = Bax activation assay; format: cell-based, human; details: lung (A-549) cancer cells; for Bax Fold change: at IC50, vs untreated control; for Bax Conc: compound at IC50
Method: Cells were obtained from American Type Culture Collection, cells were grown in RPMI 1640 containing 10% fetal bovine serum at 37°C, stimulated with the compounds to be tested for caspase8, and lysed with Cell Extraction Buffer. This lysate was diluted in Standard Diluent Buffer over the range of the assay and measured for human active caspase-8 content. […]
4.2.7. Bax activation assay
Bring all reagents, except the human Bax-α Standard, to room temperature for at least 30 minutes prior to opening. The human Bax-α Standard solution should not be left at room temperature for more than 10 minutes. All standards, controls and samples should be run in duplicate. Refer to the Assay Layout Sheet to determine the number of wells to be used and put any remaining wells with the desiccant back into the pouch and seal the ziploc. Store unused wells at 4 °C. Pipet 100 μL of Assay Buffer into the S0 (0 pg/mL standard) wells. Pipet 100 μL of Standards #1 through #6 into the appropriate wells. Pipet 100 μL of the Samples into the appropriate wells. Tap the plate gently to mix the contents. Seal the plate and incubate at room temperature on a plate shaker for 1 hour at ~500 rpm. Empty the contents of the wells and wash by adding 400 μL of wash solution to every well. Repeat the wash 4 more times for a total of 5 washes. After the final wash, empty or aspirate the wells and firmly tap the plate on a lint free paper towel to remove any remaining wash buffer.
Pipet 100 μL of yellow Antibody into each well, except the Blank. Seal the plate and incubate at room temperature on a plate shaker for 1 hour at ~500 rpm. Empty the contents of the wells and wash by adding 400 μL of wash solution to every well. Repeat the wash 4 more times for a total of 5 washes. After the final wash, empty or aspirate the wells and firmly tap the plate on a lint free paper towel to remove any remaining wash buffer. Add 100 μL of blue Conjugate to each well, except the Blank. Seal the plate and incubate at room temperature on a plate shaker for 30 minutes […]
Pipet 100 μL of Substrate Solution into each well. Incubate for 30 minutes at room temperature on a plate shaker at ~500 rpm. Pipet 100 μL Stop Solution to each well. Blank the plate reader against the Blank wells, read the optical density at 450 nm. Calculate the average net Optical Density (OD) bound for each standard and sample by subtracting the average Blank OD from the average OD for each standard and sample. Using linear graph paper, plot the Average Net OD for each standard versus Bax concentration in each standard. Approximate a straight line through the points.
The concentration of Bax in the unknowns can be determined by interpolation. […]

MCF-10A cells = test: Cell viability assay (MTT) on normal mammary epithelial cells; format: cell-based, human; details: MCF-10A normal cells, 50 µM, 4 days incubation
Method: This test investigates the effects of the new compounds 3–16 on normal cell lines to determine their safety. The normal human mammary gland epithelial (MCF-10 A) cell line was used to test the viability of the tested compounds. After 4 days of incubation on MCF-10 A cells within 50 µM of each investigated compound, cell viability was determined using the MTT assay ([Gomaa et al., 2020]; [Marzouk et al., 2020]).
The normal human mammary gland epithelial (MCF-10A) cell line was used to test the viability of the tested compounds. After 4 days of incubation on MCF-10A cells within 50 µM of each investigated compound, cell viability was determined using the MTT assay ([Gomaa et al., 2020]; [Marzouk et al., 2020]). Refer to Supplementary Appendix SA1 (supp. File) for more details.
4.2. Biological evaluation
4.2.1 Cell Viability assay (MTT assay)
MTT assay was performed to investigate the effect of the synthesized compounds on mammary epithelial cells (MCF-10A). The cells were propagated in medium consisting of Ham's F-12 medium/ Dulbecco's modified Eagle's medium (DMEM) (1:1) supplemented with 10% foetal calf serum, 2 mM glutamine, insulin (10 μg/mL), hydrocortisone (500 ng/mL) and epidermal growth factor (20 ng/mL). Trypsin ethylenediamine tetra acetic acid (EDTA) was used to passage the cells after every 2-3 days. 96-well flat-bottomed cell culture plates were used to seed the cells at a density of 10^4 cells mL-1. The medium was aspirated from all the wells of culture plates after 24 h followed by the addition of synthesized compounds (in 200 μL medium to yield a final concentration of 0.1% (v/v) dimethyl sulfoxide) into individual wells of the plates. Four wells were designated to a single compound. The plates were allowed to incubate at 37°C for 96 h. Afterwards, the medium was aspirated and 3-[4,5-dimethylthiazol-2-yl]-2,5-diphenyltetrazolium bromide (MTT) (0.4 mg/mL) in medium was added to each well and subsequently incubated for 3 h. The medium was aspirated and 150 μL dimethyl sulfoxide (DMSO) was added to each well. The plates were vortexed followed by the measurement of absorbance at 540 nm on a microplate reader. The results were presented as inhibition (%) of proliferation in contrast to controls comprising 0.1%

Compound | melting point | Bax Fold change (Bax) | Bax Conc (Bax) | Cell viability % (MCF-10A cells)
CCc1c2cc(Cl)ccc2n2c(C)c(C(=O)OCc3ccccc3)[nH]c(=O)c12 [Compound 5, benzyl 8-chloro-10-ethyl-4-methyl-1-oxo-1,2-dihydropyrazino [1,2-a]indole-3-carboxylate] | 180 to 182 °C |  |  | 
CCc1c2cc(Cl)ccc2n2cc(Cc3ccccc3)n(C)c(=O)c12 [Compound 12, 3-Benzyl-8-chloro-10-ethyl-2-methylpyrazino[1,2-a]indol-1(2H)-one] |  | 41 | 368 ± 3 pg/mL | no effect
CCc1c2cc(Cl)ccc2n2cc(-c3ccccc3)[nH]c(=O)c12 [Compound 16, 8-Chloro-10-ethyl-3-phenylpyrazino [1,2-a]indol-1(2H)-one] |  | 35 | 315 ± 3 pg/mL | no effect
